Reference: publication PMC7347136 (PLoS ONE, 2020)

Legend:
Assay in all cases: Carna kinase panel screen
Format in all cases: biochemical
Conditions in all cases: read-out: % Inhibition ± SD
ABL = biological target: T1, ABL (Homo sapiens, UniProt P00519)
T1 construct: purchased Carna Biosciences
Method: (§1) IC50 values were determined from a 10-point concentration curve using ATP concentrations approximating Km values. […] The percentage inhibition of each test solution was calculated, which allowed the IC50 value to be determined from concentration versus percentage inhibition curves by fitting to a four parameter logistic curve.

ABL[T315I] = biological target: T2, ABL[T315I] (Homo sapiens, UniProt P00519, T315I)
T2 construct: purchased Carna Biosciences
Method: as §1

ACK = biological target: T3, ACK (Homo sapiens, UniProt Q07912)
T3 construct: purchased Carna Biosciences
Method: as §1

AKT1 = biological target: T4, AKT1 (Homo sapiens, UniProt P31749)
T4 construct: purchased Carna Biosciences
T4 sequence (P31749 whole entry): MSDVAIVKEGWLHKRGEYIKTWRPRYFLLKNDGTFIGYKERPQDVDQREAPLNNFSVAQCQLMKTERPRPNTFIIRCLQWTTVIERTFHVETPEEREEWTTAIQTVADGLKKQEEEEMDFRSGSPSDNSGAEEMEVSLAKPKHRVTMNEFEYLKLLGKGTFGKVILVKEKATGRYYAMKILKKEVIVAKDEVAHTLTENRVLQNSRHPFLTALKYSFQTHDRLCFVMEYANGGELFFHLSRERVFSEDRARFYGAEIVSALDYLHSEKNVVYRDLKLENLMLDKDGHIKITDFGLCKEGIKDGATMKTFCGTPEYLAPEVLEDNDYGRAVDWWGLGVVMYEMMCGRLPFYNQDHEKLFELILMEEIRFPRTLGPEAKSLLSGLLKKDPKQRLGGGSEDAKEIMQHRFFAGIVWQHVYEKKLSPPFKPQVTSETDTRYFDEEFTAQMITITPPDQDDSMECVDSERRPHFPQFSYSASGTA
Method: as §1

AMPKa2 = biological target: T5, AMPKa2 (Homo sapiens, UniProt P54646)
T5 construct: purchased Carna Biosciences
Method: as §1

CDK5 = biological target: T6, CDK5 (Homo sapiens, UniProt Q00535)
T6 construct: purchased Carna Biosciences
Method: as §1

CHK2 = biological target: T7, CHK2 (Homo sapiens, UniProt O96017)
T7 construct: purchased Carna Biosciences
T7 sequence (O96017 whole entry): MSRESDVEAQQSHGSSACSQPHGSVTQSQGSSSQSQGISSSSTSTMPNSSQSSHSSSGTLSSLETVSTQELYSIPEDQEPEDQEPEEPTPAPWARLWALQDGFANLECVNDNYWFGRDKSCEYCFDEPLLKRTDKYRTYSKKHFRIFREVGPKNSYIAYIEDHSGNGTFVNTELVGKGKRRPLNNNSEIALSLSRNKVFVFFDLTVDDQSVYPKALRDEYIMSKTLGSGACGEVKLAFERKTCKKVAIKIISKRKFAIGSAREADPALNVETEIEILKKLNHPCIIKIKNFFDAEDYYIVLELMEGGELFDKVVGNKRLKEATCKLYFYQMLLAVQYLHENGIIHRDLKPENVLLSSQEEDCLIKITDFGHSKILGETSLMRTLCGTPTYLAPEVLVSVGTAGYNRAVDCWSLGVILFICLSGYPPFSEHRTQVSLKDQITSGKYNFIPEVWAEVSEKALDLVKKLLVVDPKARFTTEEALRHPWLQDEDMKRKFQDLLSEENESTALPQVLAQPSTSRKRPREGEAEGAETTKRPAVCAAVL
Method: as §1

CK1e = biological target: T8, CK1e (Homo sapiens, UniProt P49674)
T8 construct: purchased Carna Biosciences
Method: as §1

CTK = biological target: T9, CTK (Homo sapiens, UniProt P42679)
T9 construct: purchased Carna Biosciences
Method: as §1

CaMK2a = biological target: T10, CaMK2a (Homo sapiens, UniProt Q9UQM7)
T10 construct: purchased Carna Biosciences
Method: as §1

DYRK2 = biological target: T11, DYRK2 (Homo sapiens, UniProt Q92630)
T11 construct: purchased Carna Biosciences
T11 sequence (Q92630 whole entry): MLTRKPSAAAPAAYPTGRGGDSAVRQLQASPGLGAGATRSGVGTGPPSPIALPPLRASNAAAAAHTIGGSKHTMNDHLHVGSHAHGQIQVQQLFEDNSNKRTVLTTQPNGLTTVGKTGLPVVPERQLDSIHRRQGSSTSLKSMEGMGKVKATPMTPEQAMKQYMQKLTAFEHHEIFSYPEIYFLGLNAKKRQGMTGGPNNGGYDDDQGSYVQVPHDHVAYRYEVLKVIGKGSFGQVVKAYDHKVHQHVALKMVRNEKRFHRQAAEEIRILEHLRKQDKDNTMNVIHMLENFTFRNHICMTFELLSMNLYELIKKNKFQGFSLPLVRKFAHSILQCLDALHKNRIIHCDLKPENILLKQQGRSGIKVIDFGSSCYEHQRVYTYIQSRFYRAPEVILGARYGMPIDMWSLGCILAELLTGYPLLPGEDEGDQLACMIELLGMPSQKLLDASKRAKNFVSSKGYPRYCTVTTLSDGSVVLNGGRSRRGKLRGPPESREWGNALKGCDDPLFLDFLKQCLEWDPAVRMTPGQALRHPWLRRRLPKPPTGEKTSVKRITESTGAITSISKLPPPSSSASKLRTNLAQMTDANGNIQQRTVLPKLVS
Method: as §1

DYRK3 = biological target: T12, DYRK3 (Homo sapiens, UniProt O43781)
T12 construct: purchased Carna Biosciences
Method: as §1

EphA1 = biological target: T13, EphA1 (Homo sapiens, UniProt P21709)
T13 construct: purchased Carna Biosciences
Method: as §1

EphA8 = biological target: T14, EphA8 (Homo sapiens, UniProt P29322)
T14 construct: purchased Carna Biosciences
Method: as §1

FGFR1 = biological target: T15, FGFR1 (Homo sapiens, UniProt P11362)
T15 construct: purchased Carna Biosciences
Method: as §1

FGFR3[K650E] = biological target: T16, FGFR3[K650E] (Homo sapiens, UniProt P22607, K650E)
T16 construct: purchased Carna Biosciences
Method: as §1

HER2 = biological target: T17, HER2 (Homo sapiens, UniProt P04626)
T17 construct: purchased Carna Biosciences
T17 sequence (P04626 23-1255): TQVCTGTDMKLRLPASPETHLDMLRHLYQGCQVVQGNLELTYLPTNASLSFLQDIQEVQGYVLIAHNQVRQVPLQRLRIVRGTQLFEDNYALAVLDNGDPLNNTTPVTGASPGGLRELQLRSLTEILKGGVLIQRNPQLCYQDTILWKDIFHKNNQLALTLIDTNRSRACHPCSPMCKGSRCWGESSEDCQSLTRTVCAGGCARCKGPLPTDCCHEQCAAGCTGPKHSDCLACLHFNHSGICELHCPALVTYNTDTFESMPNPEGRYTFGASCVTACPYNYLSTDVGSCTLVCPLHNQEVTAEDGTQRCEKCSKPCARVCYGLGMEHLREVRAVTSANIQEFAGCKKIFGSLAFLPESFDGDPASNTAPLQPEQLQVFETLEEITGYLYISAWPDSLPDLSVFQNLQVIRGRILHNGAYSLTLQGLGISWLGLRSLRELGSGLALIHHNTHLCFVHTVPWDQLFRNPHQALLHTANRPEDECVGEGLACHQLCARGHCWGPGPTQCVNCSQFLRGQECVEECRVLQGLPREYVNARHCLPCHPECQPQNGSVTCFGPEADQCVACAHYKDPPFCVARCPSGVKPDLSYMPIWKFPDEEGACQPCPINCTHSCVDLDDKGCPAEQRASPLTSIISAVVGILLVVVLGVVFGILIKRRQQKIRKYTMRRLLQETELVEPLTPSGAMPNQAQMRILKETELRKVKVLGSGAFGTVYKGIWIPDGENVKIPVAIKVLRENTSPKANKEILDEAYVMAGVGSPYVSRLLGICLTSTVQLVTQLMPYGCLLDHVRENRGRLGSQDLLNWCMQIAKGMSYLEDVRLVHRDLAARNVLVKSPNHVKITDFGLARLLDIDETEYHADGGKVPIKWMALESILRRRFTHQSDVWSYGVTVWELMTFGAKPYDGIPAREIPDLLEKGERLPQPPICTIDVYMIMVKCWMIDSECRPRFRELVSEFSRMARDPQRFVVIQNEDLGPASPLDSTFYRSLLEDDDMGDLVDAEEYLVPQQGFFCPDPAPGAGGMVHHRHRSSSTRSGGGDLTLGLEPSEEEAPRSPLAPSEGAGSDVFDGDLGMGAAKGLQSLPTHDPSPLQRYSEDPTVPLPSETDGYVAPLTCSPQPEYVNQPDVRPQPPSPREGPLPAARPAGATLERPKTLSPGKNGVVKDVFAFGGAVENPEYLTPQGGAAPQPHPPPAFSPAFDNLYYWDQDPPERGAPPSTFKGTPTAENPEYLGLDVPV
Method: as §1

HIPK1 = biological target: T18, HIPK1 (Homo sapiens, UniProt Q86Z02)
T18 construct: purchased Carna Biosciences
Method: as §1

IRR = biological target: T19, IRR (Homo sapiens, UniProt P14616)
T19 construct: purchased Carna Biosciences
Method: as §1

KDR = biological target: T20, KDR (Homo sapiens, UniProt P35968)
T20 construct: purchased Carna Biosciences
Method: as §1

LIMK1 = biological target: T21, LIMK1 (Homo sapiens, UniProt P53667)
T21 construct: purchased Carna Biosciences
Method: as §1

MAP2K2 = biological target: T22, MAP2K2 (Homo sapiens, UniProt P36507)
T22 construct: purchased Carna Biosciences
Method: as §1

MAP2K6 = biological target: T23, MAP2K6 (Homo sapiens, UniProt P52564)
T23 construct: purchased Carna Biosciences
Method: as §1

MAP3K2 = biological target: T24, MAP3K2 (Homo sapiens, UniProt Q9Y2U5)
T24 construct: purchased Carna Biosciences
Method: as §1

MAP3K5 = biological target: T25, MAP3K5 (Homo sapiens, UniProt Q99683)
T25 construct: purchased Carna Biosciences
Method: as §1

MAPKAPK2 = biological target: T26, MAPKAPK2 (Homo sapiens, UniProt P49137)
T26 construct: purchased Carna Biosciences
T26 sequence (P49137 whole entry): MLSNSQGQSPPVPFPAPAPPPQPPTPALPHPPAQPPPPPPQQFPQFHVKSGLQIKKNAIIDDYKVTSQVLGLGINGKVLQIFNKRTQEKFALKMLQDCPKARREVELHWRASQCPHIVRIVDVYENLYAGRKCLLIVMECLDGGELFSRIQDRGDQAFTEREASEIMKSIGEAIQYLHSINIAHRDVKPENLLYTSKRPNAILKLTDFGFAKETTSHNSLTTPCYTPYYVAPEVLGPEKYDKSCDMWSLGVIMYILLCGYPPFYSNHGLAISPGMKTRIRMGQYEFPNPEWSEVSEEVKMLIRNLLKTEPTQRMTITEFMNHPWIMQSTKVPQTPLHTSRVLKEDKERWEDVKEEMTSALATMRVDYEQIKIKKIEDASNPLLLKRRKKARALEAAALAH
Method: as §1

MAPKAPK3 = biological target: T27, MAPKAPK3 (Homo sapiens, UniProt Q16644)
T27 construct: purchased Carna Biosciences
Method: as §1

MARK1 = biological target: T28, MARK1 (Homo sapiens, UniProt Q9P0L2)
T28 construct: purchased Carna Biosciences
T28 sequence (Q9P0L2 whole entry): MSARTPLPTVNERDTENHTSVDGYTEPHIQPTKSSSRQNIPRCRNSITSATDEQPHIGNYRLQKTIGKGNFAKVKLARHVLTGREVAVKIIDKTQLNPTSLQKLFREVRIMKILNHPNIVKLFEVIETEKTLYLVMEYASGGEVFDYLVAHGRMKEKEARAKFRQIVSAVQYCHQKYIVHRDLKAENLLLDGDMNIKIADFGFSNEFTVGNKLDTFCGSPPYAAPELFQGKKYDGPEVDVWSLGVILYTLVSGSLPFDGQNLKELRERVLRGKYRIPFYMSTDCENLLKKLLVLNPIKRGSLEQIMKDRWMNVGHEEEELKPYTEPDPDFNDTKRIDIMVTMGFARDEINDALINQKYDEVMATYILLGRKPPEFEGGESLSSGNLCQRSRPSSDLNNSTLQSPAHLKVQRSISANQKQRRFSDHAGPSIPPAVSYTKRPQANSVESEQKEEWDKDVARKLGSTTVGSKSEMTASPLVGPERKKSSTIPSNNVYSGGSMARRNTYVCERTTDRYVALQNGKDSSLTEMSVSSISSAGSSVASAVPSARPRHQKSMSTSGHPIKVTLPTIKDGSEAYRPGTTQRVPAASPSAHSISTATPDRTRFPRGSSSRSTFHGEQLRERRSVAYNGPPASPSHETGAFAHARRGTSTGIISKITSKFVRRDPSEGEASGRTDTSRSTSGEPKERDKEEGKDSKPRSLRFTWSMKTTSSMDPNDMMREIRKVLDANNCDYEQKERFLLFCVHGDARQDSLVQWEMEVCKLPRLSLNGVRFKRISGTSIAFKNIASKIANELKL
Method: as §1

MLK2 = biological target: T29, MLK2 (Homo sapiens, UniProt Q02779)
T29 construct: purchased Carna Biosciences
Method: as §1

MNK2 = biological target: T30, MNK2 (Homo sapiens, UniProt Q9HBH9)
T30 construct: purchased Carna Biosciences
Method: as §1

NEK1 = biological target: T31, NEK1 (Homo sapiens, UniProt Q96PY6)
T31 construct: purchased Carna Biosciences
Method: as §1

PDK1 = biological target: T32, PDK1 (Homo sapiens, UniProt O15530)
T32 construct: purchased Carna Biosciences
Method: as §1

PKCd = biological target: T33, PKCd (Homo sapiens, UniProt Q05655)
T33 construct: purchased Carna Biosciences
Method: as §1

PKN1 = biological target: T34, PKN1 (Homo sapiens, UniProt Q16512)
T34 construct: purchased Carna Biosciences
Method: as §1

RSK3 = biological target: T35, RSK3 (Homo sapiens, UniProt Q15349)
T35 construct: purchased Carna Biosciences
Method: as §1

RSK4 = biological target: T36, RSK4 (Homo sapiens, UniProt Q9UK32)
T36 construct: purchased Carna Biosciences
Method: as §1

SGK = biological target: T37, SGK (Homo sapiens, UniProt O00141)
T37 construct: purchased Carna Biosciences
Method: as §1

SRPK1 = biological target: T38, SRPK1 (Homo sapiens, UniProt Q96SB4)
T38 construct: purchased Carna Biosciences
Method: as §1

TRKA = biological target: T39, TRKA (Homo sapiens, UniProt P04629)
T39 construct: purchased Carna Biosciences
Method: as §1

TTK = biological target: T40, TTK (Homo sapiens, UniProt P33981)
T40 construct: purchased Carna Biosciences
T40 sequence (P33981 whole entry): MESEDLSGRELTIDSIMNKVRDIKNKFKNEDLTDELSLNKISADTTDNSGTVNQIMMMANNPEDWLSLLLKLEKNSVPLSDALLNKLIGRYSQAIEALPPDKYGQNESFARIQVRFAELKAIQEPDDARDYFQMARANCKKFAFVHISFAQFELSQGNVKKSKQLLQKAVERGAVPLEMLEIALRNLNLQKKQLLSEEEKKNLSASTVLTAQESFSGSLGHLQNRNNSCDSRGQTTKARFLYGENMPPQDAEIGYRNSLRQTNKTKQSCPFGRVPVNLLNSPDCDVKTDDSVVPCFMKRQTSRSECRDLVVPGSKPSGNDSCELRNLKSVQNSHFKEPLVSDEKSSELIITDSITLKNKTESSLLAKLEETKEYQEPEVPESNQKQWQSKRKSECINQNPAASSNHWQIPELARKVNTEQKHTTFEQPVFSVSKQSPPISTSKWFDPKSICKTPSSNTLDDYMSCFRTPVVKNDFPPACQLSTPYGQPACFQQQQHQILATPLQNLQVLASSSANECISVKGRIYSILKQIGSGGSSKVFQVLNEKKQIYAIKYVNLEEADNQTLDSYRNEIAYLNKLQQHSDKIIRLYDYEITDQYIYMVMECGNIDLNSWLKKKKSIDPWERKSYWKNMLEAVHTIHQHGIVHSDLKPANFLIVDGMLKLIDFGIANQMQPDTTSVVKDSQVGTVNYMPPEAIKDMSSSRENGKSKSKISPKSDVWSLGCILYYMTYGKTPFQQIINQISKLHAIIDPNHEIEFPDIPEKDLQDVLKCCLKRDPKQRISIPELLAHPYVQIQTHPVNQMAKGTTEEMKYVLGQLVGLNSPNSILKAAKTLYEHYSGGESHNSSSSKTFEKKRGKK
Method: as §1

YES = biological target: T41, YES (Homo sapiens, UniProt P07947)
T41 construct: purchased Carna Biosciences
Method: as §1

p70S6Kb = biological target: T42, p70S6Kb (Homo sapiens, UniProt Q9UBS0)
T42 construct: purchased Carna Biosciences
Method: as §1

skMLCK = biological target: T43, skMLCK (Homo sapiens, UniProt Q9H1R3)
T43 construct: purchased Carna Biosciences
Method: as §1

`CC[C@H](Nc1nc(NCc2cnc(C)cc2C)c2ncn(C(C)C)c2n1)[C@@H](C)O` [Fadraciclib, 2-pentanol, 3-[[6-[[(4,6-dimethyl-3-pyridinyl)methyl]amino]-9-(1-methylethyl)-9Hpurin-2-yl]amino]-, (2R,3S)] showed an inhibition at 1 µM (ABL) of -12.7 ± 0.3%, an inhibition at 1 µM (ABL[T315I]) of -13 ± 0.1% and an inhibition at 1 µM (ACK) of -0.7%. For the same molecule, the inhibition at 1 µM (AKT1) was -0.6%, the inhibition at 1 µM (AMPKa2) was -12.8 ± 0.7% and the inhibition at 1 µM (CDK5) was 98.1 ± 4%. For the same molecule, the inhibition at 1 µM (CHK2) was -7.6 ± 0.1%, the inhibition at 1 µM (CK1e) was 19.8 ± 0.5% and the inhibition at 1 µM (CTK) was 3.4 ± 0.2%. The inhibition at 1 µM (CaMK2a) was -3.6 ± 0.1%, the inhibition at 1 µM (DYRK2) was -1.8 ± 0.1% and the inhibition at 1 µM (DYRK3) was 0.9%. It also gave an inhibition at 1 µM (EphA1) of 5.1%, an inhibition at 1 µM (EphA8) of 4.2 ± 0.2% and an inhibition at 1 µM (FGFR1) of 7.8%. It also gave an inhibition at 1 µM (FGFR3[K650E]) of 5.6%, an inhibition at 1 µM (HER2) of -17.6 ± 1% and an inhibition at 1 µM (HIPK1) of 6.8 ± 0.3%. The inhibition at 1 µM (IRR) was -5.5%, the inhibition at 1 µM (KDR) was -12.8 ± 0.1% and the inhibition at 1 µM (LIMK1) was 12.3 ± 0.4%. For the same molecule, the inhibition at 1 µM (MAP2K2) was 4.1%, the inhibition at 1 µM (MAP2K6) was 0.7% and the inhibition at 1 µM (MAP3K2) was -14.7 ± 0.8%. For the same molecule, the inhibition at 1 µM (MAP3K5) was 5.2 ± 0.2%, the inhibition at 1 µM (MAPKAPK2) was -8.6 ± 0.1% and the inhibition at 1 µM (MAPKAPK3) was -6.1 ± 0.3%. For the same molecule, the inhibition at 1 µM (MARK1) was -9.7 ± 0.1%, the inhibition at 1 µM (MLK2) was 0.6% and the inhibition at 1 µM (MNK2) was -4.3 ± 0.1%. The inhibition at 1 µM (NEK1) was -18.3 ± 0.1%, the inhibition at 1 µM (PDK1) was -5.4 ± 0.1% and the inhibition at 1 µM (PKCd) was 28.7 ± 2.7%. For the same molecule, the inhibition at 1 µM (PKN1) was -17.7 ± 0.1%, the inhibition at 1 µM (RSK3) was 7.7% and the inhibition at 1 µM (RSK4) was 6 ± 0.2%. The inhibition at 1 µM (SGK) was -0.8%, the inhibition at 1 µM (SRPK1) was 5.9 ± 0.2% and the inhibition at 1 µM (TRKA) was -10.3 ± 0.3%. The inhibition at 1 µM (TTK) was 25.3 ± 4.5%, the inhibition at 1 µM (YES) was -7 ± 0.1% and the inhibition at 1 µM (p70S6Kb) was 1.9%. The inhibition at 1 µM (skMLCK) was -9.8 ± 1.1%.
